According to the NIST ThermoML archive (doi:10.1021/je5010824):

Assays:
[1] = Liquid; for vapor or sublimation pressure: Ebulliometric method (Recirculating still); for mass density: 298.15 K, 101.33 kPa, Vibrating tube method
[2] = refractive index (Na D-line) (dimensionless); details: 298.15 K; 101.33 kPa; Liquid; Standard Abbe refractometry

OCCO [1,2-ethanediol]
[1]
Details | vapor or sublimation pressure [kPa]
406.1 K | 10
423.29 K | 20
442.17 K | 40
470.4 K | 101.3

Details | refractive index
[2] | 1.431

CC(O)CO (centres undefined) [1,2-propanediol]
Details | mass density [kg/m3] | refractive index
[1] | 1031.9 | –
[2] | – | 1.432

[1]
Details | vapor or sublimation pressure [kPa]
398.25 K | 10
398.26 K | 10
414.88 K | 20
433.22 K | 40
460.69 K | 101.3

CCC(O)CO (centres undefined) [1,2-butanediol]
Details | mass density [kg/m3] | refractive index
[1] | 998.78 | –
[2] | – | 1.4378

[1]
Details | vapor or sublimation pressure [kPa]
392.06 K | 5.62
397.24 K | 7.21
402.31 K | 8.86
405.41 K | 10
406.54 K | 10.62
412.23 K | 13.56
417.66 K | 16.89
422.15 K | 20
422.48 K | 20.34
427.21 K | 24.45
432.29 K | 29.56
437.41 K | 35.54
440.83 K | 40
442.77 K | 41.92
447.52 K | 50.54
452.13 K | 58.86
457.24 K | 69.36
462.57 K | 81.92
466.64 K | 92.78
469.71 K | 101.3
